Measurements reported in patent publication US20040214850A1, “1-glyoxylamide indolizines for treating cancer” (Synta Pharmaceuticals Corp., priority 2001, published 2004).
pIC50: −log10 of the molar value.

Tests used:
[1] = test system: MDA435 (human breast cancer); assay: In vitro anti-cancer activity, MTS growth inhibition assay, MDA-435; assay type: cell-based; settings: MDA-435 cells, 72 hours
Method: (§1) The in vitro activity of the compounds was determined in the following seven human cancer cell lines. MDA435 (human breast cancer), MIP101 (human colon cancer), HL-60 (human myeloid leukemia), U937 (human leukemia), p388 (murine leukemia), DU-145 (human prostate cancer), MES-SA (human uterine sarcoma) were obtained from ATCC (American Type of Culture Collection).
(§2) The cell lines were maintained in RPMI1640 (GIBCO) supplemented with 10% FCS, 100 units/ml penicillin, 100 ug/ml streptomycin, and 2 mM L-glutamine. The cells were split every third day and diluted to a concentration of 2×10^5 cells/ml one day before experiment. All experiments were performed on exponentially growing cell culture. Cell densities were 2.5×10^4 cells/ml in all experiment.
(§3) A stock solution of Compound (1) and a stock solution of Taxol (positive control) were prepared by dissolving the compound at a concentration of 1 mM in 100% DMSO. Final concentrations were obtained by diluting the stock solution directly into the tissue culture medium. Cells were incubated with varying concentrations of the compounds for 72 hours and the IC50 was determined by MTS (i.e. 3-(4,5,-dimethylthiazol-2-yl)-2,5-diphenyl tetrazolium bromide) assay. IC50 stands for the concentration of compound required to inhibit 50% tumor cell growth.

[2] = test system: MIP101 (human colon cancer); assay: In vitro anti-cancer activity, MTS growth inhibition assay, MIP-101; assay type: cell-based; settings: MIP-101 cells, 72 hours
Method: as §1, §2, §3

[3] = test system: HL-60 (human myeloid leukemia); assay: In vitro anti-cancer activity, MTS growth inhibition assay, HL-60; assay type: cell-based; settings: HL-60 cells, 72 hours
Method: as §1, §2, §3

[4] = test system: DU-145 (human prostate cancer); assay: In vitro anti-cancer activity, MTS growth inhibition assay, DU-145; assay type: cell-based; settings: DU-145 cells, 72 hours, MTS assay (Table 1), read-out: IC50
Method: as §1, §2, §3
(§4) The protocol described in Examples 9-10 was used to assay inhibition by Compounds (20) (21) (24) and (28) on the growth of cancer cell lines MES-SA (human uterine sarcoma cell line) and DU-145 (human prostate cancer).

[5] = test system: MES-SA (human uterine sarcoma); assay: In vitro anti-cancer activity, MTS growth inhibition assay, MES-SA; assay type: cell-based; settings: MES-SA cells, 72 hours, MTS assay (Table 1), read-out: IC50
Method: as §1, §2, §3, §4

[6] = test system: MES-SA/DX5 (multi-drug resistant human uterine sarcoma cell line); assay: In vitro activity against multi-drug resistant cell line MES-SA/DX5; assay type: cell-based; settings: MES-SA/Dx5, MES-SA/DX-5 MDR cells (Table 2)
Method: as §2, §3
(§5) In vitro activity was determined in two MDR (Multi Drug Resistant) human cancer cell lines. HL-60/TX1000 was isolated in vitro by subculturing HL-60 in progressively higher concentration of Taxol. HL-60/TX1000 cells over-express mdr-1 mRNA and p-glycoprotein, as determined by western blot and immunofluorescence labeling with antiPGP antibodies. The cell is cross-resistant to Taxol, Vincristine, Adriamycin, Etoposide and Doxorubicin. MES-SA/Dx5 was established in the presence of increasing concentrations of Doxorubicin. […] MES-SA/Dx5 was purchased from ATCC.
(§6) The procedure for culturing the cells and assaying cancer cell growth inhibition were as described in Example 3.
The protocol described in Examples 9-10 was used to assay inhibition by Compounds (2)-(8) on the growth of the multidrug resistant cancer cell line MES-SA/DX5, which is a MDR uterine sarcoma cell line.

[7] = Body weight of nude mice bearing MDA435 tumor during treatment; assay type: in vivo, nude mice (CD-1 nu/nu); settings: 25 and 50 mg/kg orally
Method: The in vivo anti-cancer efficacy of Compound (1) was assessed in tumor bearing mice using a tumor growth inhibition assay. Human breast tumor (MDA-435) cells were implanted by injection of a tumor cell suspension subcutaneously in the flank of a nude mouse. Treatment of the tumor with an experimental compound began after the tumor had been established (volume was approximately 100 mm^3). The animal then began a multiple injection schedule where the compound was administered orally. Tumors were measured two times a week. During the course of this assay, animals were monitored daily for signs of toxicity including body weight loss.
A dosing solution for compound administration was prepared by dissolving 1 gram of Compound (1) in 10 ml of acetone (HPLC grade), and sonicated for 5 minutes using 550 Sonic Dismembrator. 1.2 equivalents of 1 N HCl aqueous solution were added to the acetone solution which was then sonicated for 5 minutes. All solvent was then evaporated from the solution by using Speed Vac Plus SC 250 DDA over night. The dried powder was used for preparing the dosing solution of Compound (1). 1% Methyl cellulose (MC) vehicle was prepared by dissolving 1.0 gram of Methyl cellulose, 400 cps, U.S.P. (Spectrum Laboratory Products, Cat. # ME136) in 100 mL of H2O. This mixture was then stirred for 12 hours at room temperature to produce a clear 1% MC solution. […]

[8] = test system: MDR cell lines (MES-SA/DX5, HL-60/TX1000); assay: in vitro activity over the two MDR cell lines; assay type: cell-based, human; settings: MES-SA/DX5, HL-60/TX1000; in words
Method: as §2, §3, §5, §6

Cc1cc(NC(=O)C(=O)c2cc(Cc3ccc(C#N)cc3)n3ccccc23)sn1 [Compound (1), 2-(3-(4-cyanobenzyl)-indolizin-1-yl)-N-(3-methyl-isothiazol-5-yl)-2-oxo-acetamide]
pIC50 [1]: 7.30
pIC50 [2]: 7.70
pIC50 [3]: 8.00
pIC50 [4]: 7.30
pIC50 [5]: 8.00
pIC50 [6]: 7.30
body weight change ([7]; FIG. 2): without showing significant body weight loss
body weight change ([7]; FIG. 2, listed as Compound 1): Little or no change in body weight
anti-cancer activity against MDR cancer cell lines [8]: high anti-cancer activity
